Experimental data published in PubChem BioAssay (NCI).
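Results reflect a 48-hour exposure of cells in 96-well plates to compound at five concentrations. Here, GI50 denotes the concentration required for 50% inhibition of growth. TGI: total growth inhibition.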

Key:
Assay in all cases: NCI tumour cell line growth inhibition, 48 h
[1] = test system: SK-MEL-2 melanoma
[2] = test system: UACC-257 melanoma
[3] = test system: KM12 colon
[4] = test system: SF-295 CNS
[5] = test system: A498 renal
[6] = test system: HCC-2998 colon
[7] = test system: OVCAR-8 ovarian
[8] = test system: SN12C renal
[9] = test system: SNB-19 CNS
[10] = test system: BT-549 breast
[11] = test system: OVCAR-5 ovarian
[12] = test system: MDA-MB-435
[13] = test system: COLO 205 colon
[14] = test system: RXF 393 renal
[15] = test system: IGROV1 ovarian
[16] = test system: MCF7 breast
[17] = test system: SK-MEL-5 melanoma
[18] = test system: CAKI-1 renal
[19] = test system: HS 578T breast
[20] = test system: CCRF-CEM leukemia
[21] = test system: HCT-116 colon
[22] = test system: SW-620 colon
[23] = test system: SR leukemia
[24] = test system: M14 melanoma
[25] = test system: NCI-H460 lung
[26] = test system: LOX IMVI melanoma
[27] = test system: U251 CNS
[28] = test system: ACHN renal
[29] = test system: DU-145 prostate
[30] = test system: HT29 colon
[31] = test system: MDA-MB-231 breast
[32] = test system: RPMI-8226 leukemia
[33] = test system: NCI/ADR-RES ovarian
[34] = test system: SK-OV-3 ovarian
[35] = test system: SNB-75 CNS
[36] = test system: HOP-92 NSCLC
[37] = test system: OVCAR-4 ovarian
[38] = test system: MOLT-4 leukemia
[39] = test system: 786-0 renal
[40] = test system: MALME-3M melanoma
[41] = test system: T-47D breast
[42] = test system: NCI-H226 lung
[43] = test system: UO-31 renal
[44] = test system: HCT-15 colon
[45] = test system: SK-MEL-28 melanoma
[46] = test system: HL-60(TB) leukemia
[47] = test system: K-562 leukemia
[48] = test system: SF-539 CNS
[49] = test system: NCI-H522 lung
[50] = test system: TK-10 renal
[51] = test system: SF-268 CNS
[52] = test system: A549 NSCLC
[53] = test system: OVCAR-3 ovarian
[54] = test system: HOP-62 NSCLC

CC#Cc1nc2ccccc2c(=O)[nH]1
GI50 [1]: 3.2 µM
TGI [1]: 7.21 µM
GI50 [2]: 3.4 µM
TGI [2]: 15.4 µM
GI50 [3]: 2.68 µM
TGI [3]: 6.58 µM
GI50 [4]: 4.1 µM
TGI [4]: 20.6 µM
GI50 [5]: 1.38 µM
TGI [5]: 2.74 µM
GI50 [6]: 1.99 µM
TGI [6]: 4.17 µM
GI50 [7]: 4.89 µM
TGI [7]: 64.9 µM
GI50 [8]: 3.02 µM
TGI [8]: 9.8 µM
GI50 [9]: 13.3 µM
TGI [9]: 52.3 µM
GI50 [10]: 2.34 µM
TGI [10]: 5.18 µM
GI50 [11]: 6.1 µM
TGI [11]: 27.1 µM
GI50 [12]: 2.04 µM
TGI [12]: 5.35 µM
GI50 [13]: 2.03 µM
TGI [13]: 3.7 µM
GI50 [14]: 1.57 µM
TGI [14]: 3.27 µM
GI50 [15]: 2.51 µM
TGI [15]: 6.97 µM
GI50 [16]: 3.07 µM
TGI [16]: > 100 µM
GI50 [17]: 1.65 µM
TGI [17]: 3.32 µM
GI50 [18]: 6.15 µM
TGI [18]: 28.3 µM
GI50 [19]: 4.92 µM
TGI [19]: > 100 µM
GI50 [20]: 2.62 µM
TGI [20]: 25.4 µM
GI50 [21]: 3.24 µM
TGI [21]: 13 µM
GI50 [22]: 3.7 µM
TGI [22]: 23 µM
GI50 [23]: 2.38 µM
TGI [23]: 19 µM
GI50 [24]: 3.28 µM
TGI [24]: 9.71 µM
GI50 [25]: 3.89 µM
TGI [25]: 20.2 µM
GI50 [26]: 1.82 µM
TGI [26]: 3.43 µM
GI50 [27]: 3.42 µM
TGI [27]: 12.8 µM
GI50 [28]: 3.65 µM
TGI [28]: 23.3 µM
GI50 [29]: 4.88 µM
TGI [29]: > 100 µM
GI50 [30]: 3.79 µM
TGI [30]: 13.9 µM
GI50 [31]: 2.1 µM
TGI [31]: 4.71 µM
GI50 [32]: 1.52 µM
TGI [32]: 5.73 µM
GI50 [33]: 3.89 µM
TGI [33]: 63.9 µM
GI50 [34]: 41.7 µM
TGI [34]: > 100 µM
GI50 [35]: 2.09 µM
TGI [35]: 6.43 µM
GI50 [36]: 2.3 µM
TGI [36]: 7.74 µM
GI50 [37]: 4.15 µM
TGI [37]: 27.5 µM
GI50 [38]: 2.9 µM
TGI [38]: 8.51 µM
GI50 [39]: 4.23 µM
TGI [39]: 14.7 µM
GI50 [40]: 4.21 µM
TGI [40]: 15 µM
GI50 [41]: 5.71 µM
TGI [41]: 23 µM
GI50 [42]: 2.3 µM
TGI [42]: 5.84 µM
GI50 [43]: 3.18 µM
TGI [43]: 8.87 µM
GI50 [44]: 2.73 µM
TGI [44]: 8.91 µM
GI50 [45]: 4.55 µM
TGI [45]: 33.9 µM
GI50 [46]: 3.11 µM
TGI [46]: 9.62 µM
GI50 [47]: 3.93 µM
TGI [47]: > 100 µM
GI50 [48]: 2.76 µM
TGI [48]: 9.14 µM
GI50 [49]: 5.27 µM
TGI [49]: 16.7 µM
GI50 [50]: 5.06 µM
TGI [50]: 26.3 µM
GI50 [51]: 3.17 µM
TGI [51]: 11.1 µM
GI50 [52]: 4.9 µM
TGI [52]: 34.2 µM
GI50 [53]: 2.11 µM
TGI [53]: 4.16 µM
GI50 [54]: 3.18 µM
TGI [54]: 9.43 µM
